Data from patent US20150371009A1, “DRUG IDENTIFICATION MODELS AND METHODS OF USING THE SAME TO IDENTIFY COMPOUNDS TO TREAT DISEASE” (priority 2014, published 2015).

Assays:
[1] = system: MCF7 breast cancer cell line (ER+); test: In vitro cell line proliferation assay (MTS), MCF7; format: cell-based; conditions: 96 hours; for inhibition of cell line proliferation: ER+ MCF7, escalating doses
Experimental: (§1) In vitro cell line proliferation assays. MCF7 and SK-BR-3 breast cancer cell lines were provided by the American Type Culture Collections (ATCC; Manassas, Va.) and cultured in complete medium (high glucose DMEM supplemented with 10% fetal bovine serum, L-glutamine, and pen/strep antibiotics). Drugs were purchased from Sigma-Aldrich (St. Louis, Mo.). Proliferation assays were performed as previously described with minor modifications. Cells were seeded at 5×10^3 cells per well in a 96 well plate in the morning. […] The plates were incubated at 37° C./5% CO2 for 96 hours. Cell proliferation was analyzed using MTS reagent (Promega; Madison, Wis.) according to manufacturer's protocol.
(§2) Tamoxifen was selected as a currently used breast cancer drug for comparison. […] Cell proliferation was measured using the MTS assay according to manufacturer's protocol.

[2] = system: SK-BR-3 breast cancer cell line (ER−); test: In vitro cell line proliferation assay (MTS), SKBR3; format: cell-based; conditions: 96 hours; for inhibition of cell line proliferation: ER− SKBR3, escalating doses
Experimental: as §1, §2

[3] = patients; donepezil doses up to 23 mg/day; cited from earlier work

IC50 ([1]; ER+ MCF7 cells, complete medium, MTS) [µM]	IC50 ([2]; ER− SKBR3 cells, complete medium, MTS) [µM]	Compound	inhibition of cell line proliferation [1]	inhibition of cell line proliferation [2]	side effects / worst adverse drug reactions [3]
31.2 ± 4.9	55.7 ± 4.2	4-hydroxytamoxifen [Drug 4OHtam]	dose dependent inhibition	dose dependent inhibition	
		COc1cc2c(cc1OC)C(=O)C(CC1CCN(Cc3ccccc3)CC1)C2 (racemic) [Donepezil, (RS)-2-[(1-benzyl-4-piperidyl)methyl]-5,6-dimethoxy-2,3-dihydroinden-1-one]	dose dependent inhibition	dose dependent inhibition	
		CC/C(=C(\c1ccccc1)c1ccc(OCCN(C)C)cc1)c1ccccc1 [Tamoxifen]			severe side effects including the development of endometrial cancer
